Test [1] addresses T1, Dual specificity mitogen-activated protein kinase kinase 6 (Homo sapiens, UniProt P52564).
T1 sequence (P52564 whole entry): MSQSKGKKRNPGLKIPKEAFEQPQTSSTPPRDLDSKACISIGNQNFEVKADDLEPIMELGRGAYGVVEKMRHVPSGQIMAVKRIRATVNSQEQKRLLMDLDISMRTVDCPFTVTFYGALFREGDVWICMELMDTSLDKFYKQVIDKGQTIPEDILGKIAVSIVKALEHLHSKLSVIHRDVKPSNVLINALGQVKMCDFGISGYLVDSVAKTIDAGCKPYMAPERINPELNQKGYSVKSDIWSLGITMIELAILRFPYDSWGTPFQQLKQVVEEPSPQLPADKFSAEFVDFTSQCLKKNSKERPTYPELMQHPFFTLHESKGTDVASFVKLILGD

Test [2] concerns the target Proto-oncogene tyrosine-protein kinase receptor Ret (Homo sapiens, UniProt P07949).
Test [3] deals with T2, Serine/threonine-protein kinase TAO2 (Homo sapiens, UniProt Q9UL54).
T2 sequence (Q9UL54 whole entry): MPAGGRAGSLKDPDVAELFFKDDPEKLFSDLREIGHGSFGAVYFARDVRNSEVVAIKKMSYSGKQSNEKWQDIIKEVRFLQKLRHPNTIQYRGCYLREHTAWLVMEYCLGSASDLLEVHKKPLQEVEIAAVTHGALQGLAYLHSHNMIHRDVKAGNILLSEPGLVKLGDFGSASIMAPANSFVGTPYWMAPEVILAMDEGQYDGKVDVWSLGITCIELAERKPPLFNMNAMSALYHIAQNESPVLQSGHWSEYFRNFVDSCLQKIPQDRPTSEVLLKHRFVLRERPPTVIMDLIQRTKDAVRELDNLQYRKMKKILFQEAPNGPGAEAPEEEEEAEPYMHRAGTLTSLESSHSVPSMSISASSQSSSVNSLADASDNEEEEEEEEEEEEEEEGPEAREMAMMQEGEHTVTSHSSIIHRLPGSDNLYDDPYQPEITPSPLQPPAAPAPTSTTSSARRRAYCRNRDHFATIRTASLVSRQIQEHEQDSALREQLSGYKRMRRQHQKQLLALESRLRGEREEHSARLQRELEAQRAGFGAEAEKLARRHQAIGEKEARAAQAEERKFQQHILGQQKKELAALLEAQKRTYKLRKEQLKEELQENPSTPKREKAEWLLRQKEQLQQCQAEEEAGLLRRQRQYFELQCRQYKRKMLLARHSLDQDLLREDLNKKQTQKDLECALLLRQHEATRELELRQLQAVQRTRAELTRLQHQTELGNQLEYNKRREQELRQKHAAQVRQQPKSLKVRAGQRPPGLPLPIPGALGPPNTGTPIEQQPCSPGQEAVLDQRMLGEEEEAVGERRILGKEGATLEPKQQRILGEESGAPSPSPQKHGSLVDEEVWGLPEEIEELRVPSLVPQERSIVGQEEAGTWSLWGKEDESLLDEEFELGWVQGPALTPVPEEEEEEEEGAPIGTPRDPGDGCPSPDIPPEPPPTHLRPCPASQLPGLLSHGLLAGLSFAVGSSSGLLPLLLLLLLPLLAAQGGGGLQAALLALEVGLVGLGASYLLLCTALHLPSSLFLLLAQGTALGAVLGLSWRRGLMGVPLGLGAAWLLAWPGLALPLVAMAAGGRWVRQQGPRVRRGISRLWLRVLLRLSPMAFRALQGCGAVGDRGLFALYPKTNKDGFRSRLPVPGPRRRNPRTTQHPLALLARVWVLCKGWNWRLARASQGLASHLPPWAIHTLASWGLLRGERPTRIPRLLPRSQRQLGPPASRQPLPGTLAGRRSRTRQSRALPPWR

Test [4] concerns the target T3, Serine/threonine-protein kinase TAO3 (Homo sapiens, UniProt Q9H2K8).
T3 sequence (Q9H2K8 whole entry): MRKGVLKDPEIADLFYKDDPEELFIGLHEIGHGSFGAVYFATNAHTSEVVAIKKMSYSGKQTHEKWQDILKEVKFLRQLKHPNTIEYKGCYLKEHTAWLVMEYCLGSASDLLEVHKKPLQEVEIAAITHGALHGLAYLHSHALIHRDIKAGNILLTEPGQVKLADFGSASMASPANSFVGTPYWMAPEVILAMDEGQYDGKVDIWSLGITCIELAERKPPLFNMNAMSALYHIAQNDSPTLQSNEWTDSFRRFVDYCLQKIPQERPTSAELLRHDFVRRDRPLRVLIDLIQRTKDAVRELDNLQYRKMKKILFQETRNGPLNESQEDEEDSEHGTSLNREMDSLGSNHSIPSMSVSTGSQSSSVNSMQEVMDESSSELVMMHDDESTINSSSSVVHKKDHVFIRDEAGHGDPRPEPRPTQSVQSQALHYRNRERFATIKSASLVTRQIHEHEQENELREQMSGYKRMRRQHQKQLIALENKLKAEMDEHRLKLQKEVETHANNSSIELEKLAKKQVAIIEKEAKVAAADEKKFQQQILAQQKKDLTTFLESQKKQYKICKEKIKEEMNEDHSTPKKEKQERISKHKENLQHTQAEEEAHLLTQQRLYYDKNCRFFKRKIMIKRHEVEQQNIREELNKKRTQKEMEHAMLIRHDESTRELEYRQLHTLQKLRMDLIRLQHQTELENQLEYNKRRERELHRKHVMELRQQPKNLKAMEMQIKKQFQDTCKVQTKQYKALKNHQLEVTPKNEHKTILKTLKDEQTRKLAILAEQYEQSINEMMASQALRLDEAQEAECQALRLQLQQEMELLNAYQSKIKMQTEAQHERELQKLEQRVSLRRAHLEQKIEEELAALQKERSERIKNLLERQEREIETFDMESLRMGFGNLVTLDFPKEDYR

In test [5] the target is Wee1-like protein kinase (Homo sapiens, UniProt P30291).

The source made the active and inactive calls. For most assays here, no stated cut-off is given here; in the data, actives have a measured Kd and inactives only a lower limit.

Chain of Proto-oncogene tyrosine-protein kinase receptor Ret (P07949 whole entry): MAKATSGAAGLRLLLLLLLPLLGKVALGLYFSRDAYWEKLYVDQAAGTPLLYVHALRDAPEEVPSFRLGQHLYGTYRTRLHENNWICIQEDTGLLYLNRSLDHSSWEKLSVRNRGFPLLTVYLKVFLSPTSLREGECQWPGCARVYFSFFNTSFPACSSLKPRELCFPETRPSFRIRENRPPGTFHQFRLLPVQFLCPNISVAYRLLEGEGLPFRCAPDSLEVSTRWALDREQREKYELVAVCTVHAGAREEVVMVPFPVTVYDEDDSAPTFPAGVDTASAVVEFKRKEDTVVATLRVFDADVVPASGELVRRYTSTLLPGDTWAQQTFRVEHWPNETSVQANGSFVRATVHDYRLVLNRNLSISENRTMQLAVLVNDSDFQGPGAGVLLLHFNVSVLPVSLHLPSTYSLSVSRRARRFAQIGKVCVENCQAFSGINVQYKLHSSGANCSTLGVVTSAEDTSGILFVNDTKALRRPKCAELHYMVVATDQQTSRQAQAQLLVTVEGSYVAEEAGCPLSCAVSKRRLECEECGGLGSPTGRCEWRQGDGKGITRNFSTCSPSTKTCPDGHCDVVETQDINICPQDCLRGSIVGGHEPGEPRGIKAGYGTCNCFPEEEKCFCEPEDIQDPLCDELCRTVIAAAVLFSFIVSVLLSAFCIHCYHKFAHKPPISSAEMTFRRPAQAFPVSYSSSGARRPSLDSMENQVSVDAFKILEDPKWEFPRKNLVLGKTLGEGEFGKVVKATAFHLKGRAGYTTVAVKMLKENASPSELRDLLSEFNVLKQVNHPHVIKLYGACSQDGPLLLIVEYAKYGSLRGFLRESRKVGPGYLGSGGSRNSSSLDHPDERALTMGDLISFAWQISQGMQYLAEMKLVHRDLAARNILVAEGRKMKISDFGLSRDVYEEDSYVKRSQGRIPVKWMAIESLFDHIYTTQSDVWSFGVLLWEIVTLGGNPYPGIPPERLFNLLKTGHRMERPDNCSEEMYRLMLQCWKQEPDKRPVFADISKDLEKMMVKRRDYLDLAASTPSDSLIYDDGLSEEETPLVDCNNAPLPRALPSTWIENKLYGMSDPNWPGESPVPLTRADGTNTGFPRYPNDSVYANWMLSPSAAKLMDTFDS
Chain of Wee1-like protein kinase (P30291 whole entry): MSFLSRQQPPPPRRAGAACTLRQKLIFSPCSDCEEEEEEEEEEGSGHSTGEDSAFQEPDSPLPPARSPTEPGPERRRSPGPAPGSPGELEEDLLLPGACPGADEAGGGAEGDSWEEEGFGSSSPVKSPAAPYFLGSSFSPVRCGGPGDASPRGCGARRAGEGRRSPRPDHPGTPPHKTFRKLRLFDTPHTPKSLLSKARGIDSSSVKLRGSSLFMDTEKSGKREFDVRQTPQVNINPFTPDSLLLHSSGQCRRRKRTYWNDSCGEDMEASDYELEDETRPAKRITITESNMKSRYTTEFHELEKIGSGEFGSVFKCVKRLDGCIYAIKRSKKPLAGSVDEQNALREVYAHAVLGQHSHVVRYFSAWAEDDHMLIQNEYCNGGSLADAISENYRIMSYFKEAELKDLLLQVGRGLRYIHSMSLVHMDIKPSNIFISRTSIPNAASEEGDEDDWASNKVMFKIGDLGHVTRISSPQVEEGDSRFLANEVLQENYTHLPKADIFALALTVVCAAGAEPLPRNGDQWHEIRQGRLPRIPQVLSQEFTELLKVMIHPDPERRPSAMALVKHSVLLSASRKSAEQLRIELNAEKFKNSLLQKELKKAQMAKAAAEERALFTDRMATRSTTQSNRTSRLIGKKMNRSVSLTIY

As for `C[C@@H](NC(=O)c1ncnc(N)c1Cl)c1ncc(C(=O)Nc2cc(C(F)(F)F)c(Cl)cn2)s1` [TOVORAFENIB], the Kd in test [1] was > 30 µM (inactive); in test [2], > 30 µM (inactive); in test [3] it was > 30 µM (inactive); in test [4], > 30 µM (inactive); in test [5], 0.252 µM (active).
As for `Cc1cc(Nc2ncnc3ccc(NC4=NC(C)(C)CO4)cc23)ccc1Oc1ccn2ncnc2c1` [TUCATINIB], the Kd in test [1], in test [2], in test [3], in test [4] and in test [5] was > 30 µM (inactive) throughout.
As to `Cn1ncc(Cl)c1-c1cc(C(=O)N[C@H](CN)Cc2ccc(F)c(F)c2)oc1Cl` [UPROSERTIB], the Kd in test [1], in test [2], in test [3], in test [4] and in test [5] was > 30 µM (inactive) throughout.
For the compound `CC(C)c1cc(CNc2nc(Nc3cc(C4CC4)[nH]n3)cc(N3CCN(C)CC3)n2)on1` [XL-228], the Kd is > 30 µM (inactive) in test [1]; 0.009 µM (active) in test [2]; > 30 µM (inactive) in test [3]; > 30 µM (inactive) in test [4]; > 30 µM (inactive) in test [5].
In the case of `C[C@@H](N)c1ccc(C(=O)Nc2ccnc3[nH]ccc23)cc1` [Y-39983], the Kd in test [1], in test [2], in test [3], in test [4] and in test [5] was > 30 µM (inactive) in each case.
On to `CN1C/C=C/CCOc2cccc(c2)-c2ccnc(n2)Nc2cccc(c2)C1` [ZOTIRACICLIB], for which the Kd in test [1] is > 30 µM (inactive); in test [2], 21.9 µM; in test [3], 1.07 µM (active); in test [4] it was 2.86 µM (active); in test [5], > 30 µM (inactive).

By Kd is commonly meant a measure of binding affinity in units of concentration.
